Assay results reported in article PMC4147597 (Toxins, 2014).
pEC50, pIC50: −log10 of the molar value. Like-named read-outs stand apart in the source and are kept apart here.

How the values were obtained:
L-type Ca^2+ channels = settings: read-out: IC50 for block of L-type Ca^2+ channels; cited from earlier work
Source text: (§1) There are a variety of valuable pharmacological tools available to study the contribution of specific IK channels to the mechanism of endothelium-dependent dilation in isolated vessels and to blood pressure control in vivo. IK channel modulators mainly comprise small organic compounds and venom-derived peptides. These different classes of chemicals modulate the channel by binding to either the external or the internal face of the ion-conducting pore. Among the different ion modulators, venom-derived peptides usually block their targets with high affinity, that is, with IC50 in the […] ...

hIK1 [1] = target: T1, hIK1 (Homo sapiens, UniProt O15554); type: cell-based; settings: for enhancement of the amplitude of IK currents: 0.3 μM free Ca^2+ in pipette, voltage ramps
T1 construct: expressed in transfected cells; host or cells: HEK293T cells, transient transfection with Lipofectamine 2000

hIK1 [2] = target: T1, hIK1; settings: hIK1 cell line; read-out: EC50 for hIK1 activation; cited from earlier work
Source text: The intermediate-conductance Ca^2+-activated K^+ (IK) channels belong to the gene family of calcium/calmodulin-regulated and voltage-independent K^+ channels (SK1/SK2/SK3 and IK) and contribute to cellular functions by producing membrane hyperpolarization, thus regulating intracellular Ca^2+ signaling. IK channels are gated solely by internal Ca^2+, with a unit conductance of 20–85 pS. Expression of hIK1 in HEK293T cells gives rise to inwardly rectifying K^+ currents, which are activated by submicromolar concentrations of intracellular Ca^2+ (EC50 = 0.3 μM). […] After the application of 80 μM HNTX-I, NS309 still activated the current about 1.5-fold (Figure 3A). […] After the initial equilibration period, HNTX-I was added at 80 μM to yield a higher current within ~3 min. Then, 100 nM NS309 was applied and reached the peak in under 1 min. Thus, the p ...

[3] = test system: cardiac hERG K^+ channels; settings: micromolar concentrations; cited from earlier work
Source text: as §1

[4] = test system: voltage-gated L-type Ca^2+ channels; experiment: L-type Ca^2+ channels from DRG, whole-cell patch-clamp; type: cell-based; settings: 100 μM; rat DRG; n = 5
[5] = test system: voltage-gated T-type Ca^2+ channels; experiment: T-type Ca^2+ channels from DRG, whole-cell patch-clamp; type: cell-based; settings: 100 μM; rat DRG; n = 5
BK channels = experiment: BK channel current in HEK293T cells, whole-cell patch-clamp; type: cell-based; settings: 100 μM, n = 5
[6] = test system: mouse phrenic nerve-diaphragm preparations; experiment: phrenic nerve-diaphragm twitch-tension (phrenic nerve conduction block)
Description: The twitch-tension experiments were performed using mouse phrenic nerve-diaphragm preparations. Adult Kunming albino mice (18–22 g of either gender) were killed by cervical dislocation. After dissection, the preparations were placed in a Plexiglas chamber immersed in Tyrode’s solution or toxin solutions continuously bubbled with 95% O2, 5% CO2 and maintained at 30–32 °C. The electrical stimulation was applied indirectly to the phrenic nerve with a suction electrode at 0.2 Hz with pulses of 0.2 ms in duration and supramaximally. For direct stimulation, the muscle was stimulated at a frequency of 0.2 Hz (supramaximal, 2 ms, square wave). A mechanical-electric transducer made of a semiconductor strain gauge was used to transform the twitch responses into electric signals. […] The time from the application of HNTX-I to complete blocking of neuromuscular transmission was defined as blocking time, and the concentrations of HNTX-I we used were 1 μM, 10 μM and 100 μM.

mice = experiment: acute in vivo toxicity in mice; parameters: species or system mouse
Description: (§2) Five mice (17–19 g) were injected intravenously with multiple […] doses of 0.5–2.5 mg/kg HNTX-I (in mammalian Ringer solution with 1% ethanol and 2.5% BSA). Five control mice were injected with an equal volume of the vehicle. The toxicity of HNTX-I was qualitatively assayed by intra-abdominal injection into adult male cockroaches (Periplaneta) with body weights of 0.8–1.2 g at doses of 50–250 μg/g using 10-μL solutions (in 0.85% (w/v) normal saline).

[7] = test system: American cockroach (Periplaneta americana); experiment: acute in vivo toxicity in American cockroach; settings: intra-abdominal injection, 50–250 μg/g; adult male; 7 days
Description: as §2

[8] = test system: voltage-gated Na^+ channels; experiment: voltage-gated Na^+ channels, summary of screening; type: cell-based, rat; settings: 100 μM
[9] = test system: voltage-gated Ca^2+ channels; experiment: voltage-gated Ca^2+ channels, summary of screening; type: cell-based, rat; settings: 100 μM
hERG K^+ channel = settings: 100 μM
neuronal TTX-S VGSCs = settings: adult rat dorsal root ganglion neurons; ref previous works (ref 9); cited from earlier work
[10] = test system: VGSCs in cardiac or skeletal muscles; settings: mammals; ref previous works; cited from earlier work
rNav1.2/β1 = settings: Xenopus laevis oocytes; ref previous works; cited from earlier work
para/tipE = settings: Xenopus laevis oocytes; ref previous works; cited from earlier work
[11] = test system: tetrodotoxin-resistant (TTX-R) Na^+ channels; settings: cited from earlier work
VGSCs = settings: ref previous work; cited from earlier work
Source text: In general, hydrophobic and polar residue hot spots are important binding determinants in toxins and ion channel interactions. […] HNTX-I should therefore present a similar type of interacting surface as other toxins whose binding sites are at the outer membrane. In our previous work, we have shown that such a basic profile ...

[12] = intravenous, 0.5–2.5 mg/kg, seven days

T1 sequence (O15554 whole entry): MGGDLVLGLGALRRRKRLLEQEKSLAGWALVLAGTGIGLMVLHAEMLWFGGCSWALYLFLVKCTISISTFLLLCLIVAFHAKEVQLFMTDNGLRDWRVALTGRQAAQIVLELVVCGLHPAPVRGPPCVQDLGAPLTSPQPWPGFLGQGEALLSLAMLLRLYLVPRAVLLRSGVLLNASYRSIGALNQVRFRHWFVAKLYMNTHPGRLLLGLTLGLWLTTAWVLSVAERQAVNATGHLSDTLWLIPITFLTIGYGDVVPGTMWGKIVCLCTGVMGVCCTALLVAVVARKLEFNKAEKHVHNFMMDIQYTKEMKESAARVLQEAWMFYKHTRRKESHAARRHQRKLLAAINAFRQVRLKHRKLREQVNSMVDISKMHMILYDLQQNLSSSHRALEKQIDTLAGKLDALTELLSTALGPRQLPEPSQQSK

Compound: CCn1c(=O)[nH]c2cc(Cl)c(Cl)cc21 [DC-EBIO, 5,6-dichloro-1-ethyl-1,3-dihydro-2H-benzimidazole-2-one]
- pIC50 (L-type Ca^2+ channels): 4.15

Compound: O=C1Nc2c(ccc(Cl)c2Cl)C1=NO [NS309, 3-oxime-6,7-dichloro-1H-indole-2,3-dione, reference compound]
- activation of hIK1 channels in the presence of HNTX-I (hIK1 [1]; 100 nM NS309, 80 μM HNTX-I): activated hIK1 channels
- activation of current after HNTX-I (fold) (hIK1 [1]; 100 nM NS309 after application of 80 μM HNTX-I): about 1.5 fold
- influence of HNTX-I on potency and kinetics of NS309 (hIK1 [1]; 100 nM NS309 in the presence of 80 μM HNTX-I): not notably influenced by HNTX-I
- time to peak of NS309 activation (hIK1 [1]; 100 nM NS309 in the presence of 80 μM HNTX-I, n = 5): under 1 min
- pEC50 (hIK1 [2]): 7.52
- pIC50 (L-type Ca^2+ channels): 5.00
- inhibition of cardiac hERG K^+ channels [3]: inhibits

Compound: Hainantoxin-I [HNTX-I]
- enhancement of the amplitude of IK currents (hIK1 [1]; 40 μM HNTX-I, n = 5): 33.2% ± 0.5
- reversibility / dose-dependency on hIK1 (hIK1 [1]; 80 μM HNTX-I): clearly demonstrated the dose-dependency, as well as reversible nature
- time to yield higher current (hIK1 [1]; 80 μM HNTX-I, after initial equilibration, before NS309): ~ 3 min
- enhancement of the amplitude of IK currents (hIK1 [1]; 80 μM HNTX-I, n = 5): 97% ± 0.7
- Imax (hIK1 [1]; 80 μM HNTX-I, current shortly before application = 100%): 197%
- Imax at higher concentration (hIK1 [1]; 200 μM HNTX-I, compared with 80 μM): did not change
- time to reach higher current level (hIK1 [1]; after 40 μM HNTX-I applied, n = 5): ~ 3 min
- return of current to baseline upon washing (hIK1 [1]; washing after 40 μM HNTX-I, n = 5): the current returned to baseline with approximately the same time characteristics
- effect on L-type Ca^2+ channels [4]: no effect
- effect on T-type Ca^2+ channels [5]: no effect
- effect on BK channels (BK channels): no effect
- inhibition of nerve-evoked twitch tension ([6]; 1 μM, Tyrode's solution, 30–32 °C): did not inhibit the nerve-evoked twitch tension
- influence on neuromuscular transmission ([6]; 100 μM or lower): did not influence the neuromuscular transmission
- blockade of twitch responses ([6]; 10 and 100 μM, within 4 h, n = 5): no apparent blockades in the twitch responses
- clinical appearance (mice; intravenous, 0.5, 1.0, 1.5, 2.0 and 2.5 mg/kg, five mice per dose, seven-day study): appeared clinically normal
- aggressive/defensive responses (mice; [12]): no aggressive/defensive responses were elicited
- death (mice; [12]): did not cause death at any concentration
- depilation of pelage (mice; [12]): not depilated
- symptoms of poisoning [7]: did not produce symptoms of poisoning
- sensitivity of voltage-gated Na^+ channels [8]: insensitive
- sensitivity of voltage-gated Ca^2+ channels [9]: insensitive
- sensitivity of hERG K^+ channels (hERG K^+ channel): insensitive
- effect on hERG K^+ channel (hERG K^+ channel; HEK293T cells, n = 5): no effect
- effect on neuronal TTX-S VGSCs (neuronal TTX-S VGSCs): no effect
- effect on VGSCs in cardiac or skeletal muscles [10]: nor does it target VGSCs
- block of rNav1.2/β1 (rNav1.2/β1): selectively blocks
- block of para/tipE (para/tipE): selectively blocks
- effect on TTX-R Na^+ channels [11]: no effect
- inhibition of VGSCs in vertebrates and insects (VGSCs): inhibits VGSCs
